Reference: US4010193A, “Basic ester” (Chinoin Gyogyszer-es Vegyeszeti Termekek Gyara RT, priority 1972, dated 1977)
Structures can show the parent of a compound that is named as a salt.

What was measured:
[1] = tested on: isolated ischiadicus nerves; test: Local anaesthetic effect on isolated ischiadicus nerves of frogs; details: for ED50 (dose reducing by 50% the amplitude of the action-potential): isolated ischiadicus nerves of frogs
Experimental: 4. Local anaesthetical effect The local anaesthetic effect being characteristic of the majority of antiarrhythmical agents is tested on isolated ischiadicus nerves of frogs. The dose reducing by 50% the amplitude of the action-potential induced by stimulation of the nerves is considered as the rate (ED50) of the local anaesthetic effect.

[2] = tested on: dogs; test: ECG (EKG) disturbances in dogs; type: in vivo; details: dose which exhibits a coronary dilatory effect
[3] = tested on: dogs; test: Toxicity on dogs (own investigations); type: in vivo
[4] = tested on: rats; test: Acute toxicity on rats; type: in vivo; details: own investigations
Experimental: (§1) Acute toxicity is measured on rats weighing 150-200 g. The test-compound is injected into the tail wein, within a period of not more, than 5 seconds in a volume of 0.2 ml/100 g. The LD50 -value and the confidentiality limits thereof are evaluated on the basis of the number of animals died within 24 hours. See (J. Pharmacol. Exper. Ther. 96, 89 (1948))

[5] = tested on: strophantine arrhythmia; test: Antagonism of strophantine arrhythmia on dogs; type: in vivo
Experimental: 1. Antagonism of strophantine arrhythmia on dogs
(§2) On dogs anaesthetized with Nembutal (25 mg/kg) (iv.) disturbance of the cardiac rhythm was produced by the slow intravenous infusion of 40 - 80 μg/kg of strophantine, the latter amount depending on the sensibility of the animals. After the appearance of cumulated ventricular extrasystolae the test-compounds are intravenously injected in increasing doses and the arrhythmia antagonizing effect is regarded as positive, if the rhythm disturbance reappears after the cessation of the drug effect. Atrial and ventricular antifibrillatory effect on cats

[6] = tested on: isolated right atrium; test: Effect on spontaneous frequency of isolated right atria of rabbits
Experimental: (§3) 3. effect on the electro-physiological characteristics of isolated right and left atria of rabbits
(§4) Rabbits are killed by blows on the napeon; the isolated right atrium which is surviving in a Locke-solution having a temperature of 32° C the spontane frequency and on the isolated left atrium the electric threshold, the velocity of stimulus-transmission and the maximal driving frequency is determined. (Detailed description of the test: see L. Szekeres and Gy. Papp: "Experimental cardiac arrhythmias and antiarrhythmic drugs." Publishing House of the Hungarian Academy of Sciences, Budapest, 1971). Upon the effect of the rising concentrations of the various test compounds, the increase of the electric threshold indicates the reduction of myocardial stimulability and the decrease of the maximal driving frequency indicates the prolongation of the refractory period.

[7] = tested on: right ventriculum; test: Ventricular antifibrillatory effect on cats (ventricular fibrillation threshold); type: in vivo
Experimental: as §2
(§5) In cats anaesthetized with an urethane mixture (60/300 mg/kg i.p.) the right atrium and the right ventriculum is irritated through a dipolar silver electrode with 20 Hz rectangular electric stimuli of […]. The threshold intensity (i.e. fibrillation threshold value) just eliciting the fibrillation of the ventriculum is determined. The capacity of the compounds to elevate the fibrillation threshold when administered intravenously is tested. (British J. Pharmacol. 17, 167, 1961).

[8] = tested on: isolated left atrium; test: Effect on electro-physiological characteristics of isolated left atria of rabbits (electric threshold, velocity of stimulus-transmission, maximal driving frequency)
Experimental: as §3, §4

[9] = Acute toxicity on rats; type: in vivo; details: rat, in vivo, iv, tail vein injection, deaths within 24 hours, confidence 95 %
Experimental: as §1

[10] = tested on: right atrium; test: Atrial antifibrillatory effect on cats (atrial fibrillation threshold); type: in vivo
Experimental: as §2, §5

Row | SMILES | Period of antagonising strophantine arrhythmia ([5]; dose 2 mg/kg. i.v.) [s] | ED50 (dose reducing by 50% the amplitude of the action-potential) [1] [µg/mL] | Spontaneous frequency/min., changed value ([6]; 5 mg/l.) [min⁻¹] | Spontaneous frequency/min., changed value ([6]; 10 mg/l.) [min⁻¹] | Ventricular fibrillation threshold, changed value ([7]; 2 mg/kg iv.) [mA] | Maximal driving frequency/min, changed value ([8]; 5 mg./l.) [min⁻¹] | Velocity of stimulus-transmission, changed value ([8]; 5 mg./l.) [m/sec] | Velocity of stimulus-transmission, deviation from basic value ([8]; 5 mg./l.) [%] | Electric stimulus threshold, changed value ([8]; 5 mg/l.) [mA] | Maximal driving frequency/min, changed value ([8]; 10 mg./l.) [min⁻¹] | Velocity of stimulus-transmission, changed value ([8]; 10 mg./l.) [m/sec] | Velocity of stimulus-transmission, deviation from basic value ([8]; 10 mg./l.) [%] | Electric stimulus threshold, changed value ([8]; 10 mg/l.) [mA] | LD50 at 24 h [9] [mg/kg] | Atrial fibrillation threshold, changed value ([10]; 2 mg/kg iv.) [mA] | Ventricular fibrillation threshold, changed value ([7]; 4 mg/kg iv.) [mA] | Ventricular fibrillation threshold, changed value ([7]; 6 mg/kg iv.) [mA] | Atrial fibrillation threshold, changed value ([10]; 4 mg/kg iv.) [mA] | Atrial fibrillation threshold, changed value ([10]; 6 mg/kg iv.) [mA] | also measured
1 | COc1cc(C(=O)OCCCNCCC(c2ccccc2)c2ccccc2)cc(OC)c1OC.Cl [3-(3,3-diphenyl-propylamino)-propyl-3,4,5-trimethoxy-benzoate-hydrochloride, reference compound] |  |  |  |  |  |  |  |  |  |  |  |  |  |  |  |  |  |  |  | wash-out from isolated frog nerve ([1]; isolated frog nerve): cound not be washed out from isolated frog nerve; ECG (EKG) disturbances [2]: often caused ECG (EKG) disturbances; toxicity relative to the compounds of the Formula I, dogs [3]: significantly more toxic than the compounds of the Formula I; toxicity relative to the compounds of the Formula I, rats [4]: significantly more toxic than the compounds of the Formula I
2 | COc1cc(C(=O)OCCNC(C)c2ccccc2)cc(OC)c1OC (centres unmarked) [Compound 1, N-2-ethyl-1-phenyl-ethylamino-3,4,5,-trimethoxy-benzoate-hydrochloride] | 213 | 710 | 121 | 115 | 0.97 | 267 | 0.34 | -15 | 0.32 | 280 | 0.43 | -17 | 0.21 | 28 | 1.02 |  |  |  |  | Period of antagonising strophantine arrhythmia ([5]; dose 4 mg/kg. i.v.): 260 s
3 | COc1cc(C(=O)OCCNC(C)C)cc(OC)c1OC [Compound 2] | 287 | 570 | 134 | 120 | 0.82 | 334 | 0.32 | -18 | 0.39 | 251 | 0.32 | -27 | 0.62 | 57 | 0.66 | 0.99 | 1.46 | 0.90 | 0.89 | Period of antagonising strophantine arrhythmia ([5]; dose 0,5 mg/kg. i.v.): 145 s; Period of antagonising strophantine arrhythmia ([5]; dose 1 mg/kg. i.v.): 228 s
4 | COc1cc(C(=O)OCCNC2CCCCC2)cc(OC)c1OC [Compound 3, N-2-ethyl-cyclohexylamino-3,4,5-trimethoxy-benzoate-hydrochloride] |  | 450 | 136 | 120 | 1.02 | 264 | 0.34 | -40 | 0.31 | 226 | 0.20 | -54 | 1.71 | 29 | 0.95 | 1.19 | 1.68 | 1.02 | 1.18 | Spontaneous frequency/min., changed value ([6]; 1 mg/l.): 116 min⁻¹; Ventricular fibrillation threshold, deviation from basic value ([7]; 6 mg/kg iv.): +121%; Maximal driving frequency/min, changed value ([8]; 1 mg./l.): 352 min⁻¹; Velocity of stimulus-transmission, changed value ([8]; 1 mg./l.): 0.49 m/sec; Electric stimulus threshold, changed value ([8]; 1 mg/l.): 0.26 mA; Electric stimulus threshold, deviation from basic value ([8]; 10 mg/l., in %): +217 /3/
